Test results from ChEMBL document CHEMBL1909046, “DrugMatrix in vitro pharmacology data”.
*1 amine or outer side, *2 acyl side, *3 side chain or, on linkers, in order; H or OH if unused. Where a SMILES comes first, the peptide text is derived from it. Bridges are numbered along the chain shown (N, C = ends). Roman numbers before positions name the chains, in order. [ ]: non-standard residue; d: D form. Actinocin(1to9) = Cc1c2oc3c(C)ccc(C(=O)[*:2])c3nc-2c(C(=O)[*:1])c(N)c1=O; NMeV = CN[C@H](C(=O)O)C(C)C; Sar = CNCC(=O)O

Key:
[1] = target: T1, Alpha-1A adrenergic receptor (Rattus norvegicus, UniProt P43140); test: DRUGMATRIX: Alpha-1A adrenergic receptor radioligand binding (ligand: prazosin); format: cell membranes, Wistar, Submaxillary gland, Membrane; details: Not Active = under 50% inhibition at 10 µM
T1 sequence (P43140 whole entry): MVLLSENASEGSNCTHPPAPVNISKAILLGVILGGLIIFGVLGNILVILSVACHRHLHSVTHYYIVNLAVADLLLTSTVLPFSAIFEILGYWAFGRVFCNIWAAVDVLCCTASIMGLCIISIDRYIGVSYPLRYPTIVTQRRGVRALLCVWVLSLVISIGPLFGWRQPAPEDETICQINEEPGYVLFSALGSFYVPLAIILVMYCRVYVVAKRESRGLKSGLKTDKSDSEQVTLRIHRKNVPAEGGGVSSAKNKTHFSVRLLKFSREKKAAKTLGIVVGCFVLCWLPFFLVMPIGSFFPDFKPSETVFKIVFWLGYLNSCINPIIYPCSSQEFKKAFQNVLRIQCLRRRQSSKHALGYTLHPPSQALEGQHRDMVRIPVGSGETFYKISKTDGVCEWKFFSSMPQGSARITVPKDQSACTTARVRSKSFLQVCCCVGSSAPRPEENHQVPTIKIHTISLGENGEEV

[2] = DRUGMATRIX: Calcium Channel Type L, Dihydropyridine radioligand binding (ligand: [3H] Nitrendipine); format: cell membranes, Rattus norvegicus, Wistar, Cerebral cortex, Membrane; details: Not Active = under 50% inhibition at 10 µM
Endothelin-1 receptor = target: T2, Endothelin-1 receptor (Homo sapiens, UniProt P25101); format: cell membranes, CHO-K1, Membrane; details: cho-k1; also: in other assays of this panel Not Active means under 50% inhibition at 10 µM
T2 sequence (P25101 whole entry): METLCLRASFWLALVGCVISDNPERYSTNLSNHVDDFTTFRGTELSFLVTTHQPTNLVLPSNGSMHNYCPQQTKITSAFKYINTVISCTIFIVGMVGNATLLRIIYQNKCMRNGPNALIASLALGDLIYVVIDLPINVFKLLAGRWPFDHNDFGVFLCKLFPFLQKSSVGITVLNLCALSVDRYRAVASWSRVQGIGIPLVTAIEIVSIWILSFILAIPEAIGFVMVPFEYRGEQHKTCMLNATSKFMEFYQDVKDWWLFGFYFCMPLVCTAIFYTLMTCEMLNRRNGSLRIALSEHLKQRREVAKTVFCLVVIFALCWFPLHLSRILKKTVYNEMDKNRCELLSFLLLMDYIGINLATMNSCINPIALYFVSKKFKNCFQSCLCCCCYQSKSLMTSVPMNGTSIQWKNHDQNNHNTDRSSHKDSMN

[3] = DRUGMATRIX: Interleukin IL-1 radioligand binding (ligand: [125I] interleukin 1beta); format: cell membranes, Membrane; details: nih3t3; Not Active = under 50% inhibition at 10 µM
[4] = target: Platelet-activating factor receptor (Homo sapiens, UniProt P25105); format: tissue-based; also: in other assays of this panel Not Active means under 50% inhibition at 10 µM
Sequence of Platelet-activating factor receptor (P25105 whole entry): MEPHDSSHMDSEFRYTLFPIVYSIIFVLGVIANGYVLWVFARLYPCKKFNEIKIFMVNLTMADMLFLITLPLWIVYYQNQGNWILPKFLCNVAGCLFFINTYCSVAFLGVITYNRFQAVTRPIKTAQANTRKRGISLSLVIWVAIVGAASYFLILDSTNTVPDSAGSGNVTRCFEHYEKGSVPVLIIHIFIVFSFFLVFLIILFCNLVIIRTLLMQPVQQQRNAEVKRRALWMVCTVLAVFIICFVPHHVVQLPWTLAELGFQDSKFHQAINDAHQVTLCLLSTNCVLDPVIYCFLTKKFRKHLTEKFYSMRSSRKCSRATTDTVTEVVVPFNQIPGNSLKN

[5] = target: 5-hydroxytryptamine receptor 1B (Rattus norvegicus, UniProt P28564); format: cell membranes, Wistar, Cerebral cortex, Membrane; also: in other assays of this panel Not Active means under 50% inhibition at 10 µM
Sequence of 5-hydroxytryptamine receptor 1B (P28564 whole entry): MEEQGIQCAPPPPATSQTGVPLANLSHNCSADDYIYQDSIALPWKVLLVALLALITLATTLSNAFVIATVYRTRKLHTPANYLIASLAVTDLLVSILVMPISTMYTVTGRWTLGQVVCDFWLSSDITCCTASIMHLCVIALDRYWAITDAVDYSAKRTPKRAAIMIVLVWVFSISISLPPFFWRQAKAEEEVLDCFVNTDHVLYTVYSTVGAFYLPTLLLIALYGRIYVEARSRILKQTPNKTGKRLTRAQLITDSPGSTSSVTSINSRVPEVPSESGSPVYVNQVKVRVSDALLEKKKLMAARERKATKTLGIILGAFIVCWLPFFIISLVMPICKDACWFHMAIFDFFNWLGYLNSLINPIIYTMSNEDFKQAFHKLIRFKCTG

Adenosine receptor A2a = Adenosine receptor A2a (Homo sapiens, UniProt P29274); test: DRUGMATRIX: Adenosine A2A radioligand binding (ligand: […]); format: cell membranes, Membrane; details: hek293; Not Active = under 50% inhibition at 10 µM
Sequence of Adenosine receptor A2a (P29274 whole entry): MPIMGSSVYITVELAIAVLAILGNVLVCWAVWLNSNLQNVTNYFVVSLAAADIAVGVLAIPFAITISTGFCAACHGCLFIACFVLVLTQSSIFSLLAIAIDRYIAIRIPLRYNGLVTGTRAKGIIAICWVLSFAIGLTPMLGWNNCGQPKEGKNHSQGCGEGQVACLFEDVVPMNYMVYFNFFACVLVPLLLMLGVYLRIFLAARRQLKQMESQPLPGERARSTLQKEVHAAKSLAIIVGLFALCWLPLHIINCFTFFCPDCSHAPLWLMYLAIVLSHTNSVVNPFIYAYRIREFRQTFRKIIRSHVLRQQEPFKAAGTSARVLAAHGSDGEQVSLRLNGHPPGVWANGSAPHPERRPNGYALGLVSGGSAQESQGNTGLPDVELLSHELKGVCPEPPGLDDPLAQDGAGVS

COCCc1ccc(OCC(O)CNC(C)C)cc1 (configuration not stated) [METOPROLOL]
Not Active: IC50 [1] | IC50 [2] | Ki [2] | IC50 (Endothelin-1 receptor) | IC50 [3] | Ki [3] | IC50 [4] | IC50 [5] | IC50 (Adenosine receptor A2a)

COc1cc2nc(N3CCN(C(=O)C4COc5ccccc5O4)CC3)nc(N)c2cc1OC (configuration not stated) [DOXAZOSIN]
0.628 nM: Ki ([1]; read-out: Ki)
1.55 nM: IC50 ([1]; read-out: IC50)
Not Active: IC50 [2] | Ki [2] | IC50 (Endothelin-1 receptor) | IC50 [3] | Ki [3] | IC50 [4] | IC50 [5] | IC50 (Adenosine receptor A2a)

NCCCCCC(=O)O [AMINOCAPROIC ACID]
Not Active: IC50 [1] | IC50 [2] | Ki [2] | IC50 (Endothelin-1 receptor) | IC50 [3] | Ki [3] | IC50 [4] | IC50 [5] | IC50 (Adenosine receptor A2a)

CC(C)(C)NCC(O)c1cc(Cl)c(N)c(Cl)c1 (configuration not stated) [CLENBUTEROL]
Not Active: IC50 [1] | IC50 [2] | Ki [2] | IC50 (Endothelin-1 receptor) | IC50 [3] | Ki [3] | IC50 [4] | IC50 [5] | IC50 (Adenosine receptor A2a)

CCCN1C[C@H](CSC)C[C@@H]2c3cccc4[nH]cc(c34)C[C@H]21 [PERGOLIDE]
1930 nM: IC50 ([1]; read-out: IC50)
781 nM: Ki ([1]; read-out: Ki)
87 nM: IC50 ([5]; read-out: IC50)
Not Active: IC50 [2] | Ki [2] | IC50 (Endothelin-1 receptor) | IC50 [3] | Ki [3] | IC50 [4] | IC50 (Adenosine receptor A2a)
40 nM: Ki ([5]; read-out: Ki)

CN(C)C(=O)Oc1cc(OC(=O)N(C)C)cc(C(O)CNC(C)(C)C)c1 (configuration not stated) [BAMBUTEROL]
Not Active: IC50 [1] | IC50 [2] | Ki [2] | IC50 (Endothelin-1 receptor) | IC50 [3] | Ki [3] | IC50 [4] | IC50 [5] | IC50 (Adenosine receptor A2a)

c1ccc(Nc2ccc(Nc3ccccc3)cc2)cc1
Not Active: IC50 [1] | IC50 [2] | Ki [2] | IC50 (Endothelin-1 receptor) | IC50 [3] | Ki [3] | IC50 [4] | IC50 [5] | IC50 (Adenosine receptor A2a)

Cc1cc(C(C#N)c2ccc(Cl)cc2)c(Cl)cc1NC(=O)c1cc(I)cc(I)c1O (configuration not stated) [CLOSANTEL]
Not Active: IC50 [1] | IC50 [2] | Ki [2] | IC50 (Endothelin-1 receptor) | IC50 [3] | Ki [3] | IC50 [4] | IC50 [5] | IC50 (Adenosine receptor A2a)

Cc1ccc2cc3c(ccc4ccccc43)c3c2c1CC3 [3-METHYLCHOLANTHRENE]
Not Active: IC50 [1] | IC50 [2] | Ki [2] | IC50 (Endothelin-1 receptor) | IC50 [3] | Ki [3] | IC50 [4] | IC50 [5] | IC50 (Adenosine receptor A2a)

Nc1nc2c(ncn2CCC(CO)CO)c(=O)[nH]1 [PENCICLOVIR]
Not Active: IC50 [1] | IC50 [2] | Ki [2] | IC50 (Endothelin-1 receptor) | IC50 [3] | Ki [3] | IC50 [4] | IC50 [5] | IC50 (Adenosine receptor A2a)

CC1Cc2ccccc2N1NC(=O)c1ccc(Cl)c(S(N)(=O)=O)c1 (configuration not stated) [INDAPAMIDE]
Not Active: IC50 [1] | IC50 [2] | Ki [2] | IC50 (Endothelin-1 receptor) | IC50 [3] | Ki [3] | IC50 [4] | IC50 [5] | IC50 (Adenosine receptor A2a)

Cc1ccc(-c2cc(C(F)(F)F)nn2-c2ccc(S(N)(=O)=O)cc2)cc1 [CELECOXIB]
15800 nM: Ki ([2]; read-out: Ki)
24600 nM: IC50 ([2]; read-out: IC50)
Not Active: IC50 [1] | IC50 (Endothelin-1 receptor) | IC50 [3] | Ki [3] | IC50 [4] | IC50 [5] | IC50 (Adenosine receptor A2a)

CCCCc1nc(Cl)c(CO)n1Cc1ccc(-c2ccccc2-c2nnn[nH]2)cc1 [LOSARTAN]
Not Active: IC50 [1] | IC50 [2] | Ki [2] | IC50 (Endothelin-1 receptor) | IC50 [3] | Ki [3] | IC50 [4] | IC50 [5] | IC50 (Adenosine receptor A2a)

CC(NC(C)(C)C)C(=O)c1cccc(Cl)c1 (configuration not stated) [BUPROPION]
Not Active: IC50 [1] | IC50 [2] | Ki [2] | IC50 (Endothelin-1 receptor) | IC50 [3] | Ki [3] | IC50 [4] | IC50 [5] | IC50 (Adenosine receptor A2a)

COc1cc2c3cc1Oc1cc(ccc1O)C[C@@H]1c4c(cc(OC)c(O)c4Oc4ccc(cc4)C[C@@H]3N(C)CC2)CC[N+]1(C)C.[Cl-]
Not Active: IC50 [1] | IC50 [2] | Ki [2] | IC50 (Endothelin-1 receptor) | IC50 [3] | Ki [3] | IC50 [4] | IC50 [5] | IC50 (Adenosine receptor A2a)

CCC(C)n1ncn(-c2ccc(N3CCN(c4ccc(OCC5COC(Cn6cncn6)(c6ccc(Cl)cc6Cl)O5)cc4)CC3)cc2)c1=O (configuration not stated) [ITRACONAZOLE]
Not Active: IC50 [1] | IC50 [2] | Ki [2] | IC50 (Endothelin-1 receptor) | IC50 [3] | Ki [3] | IC50 [4] | IC50 [5] | IC50 (Adenosine receptor A2a)

CADMIUM ACETATE
Not Active: IC50 [1] | Ki [1] | IC50 [2] | Ki [2] | IC50 (Endothelin-1 receptor) | Ki (Endothelin-1 receptor) | IC50 [3] | Ki [3] | IC50 [4] | Ki [4] | IC50 [5] | Ki [5] | IC50 (Adenosine receptor A2a) | Ki (Adenosine receptor A2a)

C[C@H]1O[C@@H](O[C@H]2[C@@H](O)C[C@H](O[C@H]3[C@@H](O)C[C@H](O[C@H]4CC[C@@]5(C)[C@H](CC[C@@H]6[C@@H]5C[C@@H](O)[C@]5(C)[C@@H](C7=CC(=O)OC7)CC[C@]65O)C4)O[C@@H]3C)O[C@@H]2C)C[C@H](O)[C@@H]1O [DIGOXIN]
Not Active: IC50 [1] | IC50 [2] | Ki [2] | IC50 (Endothelin-1 receptor) | IC50 [3] | Ki [3] | IC50 [4] | IC50 [5] | IC50 (Adenosine receptor A2a)

Cc1c2oc3c(C)ccc(C(=O)N[C@@H]4C(=O)N[C@H](C(C)C)C(=O)N5CCC[C@H]5C(=O)N(C)CC(=O)N(C)[C@@H](C(C)C)C(=O)O[C@@H]4C)c3nc-2c(C(=O)N[C@@H]2C(=O)N[C@H](C(C)C)C(=O)N3CCC[C@H]3C(=O)N(C)CC(=O)N(C)[C@@H](C(C)C)C(=O)O[C@@H]2C)c(N)c1=O [DACTINOMYCIN] (I: T[dV]P[Sar][NMeV] / II: T[dV]P[Sar][NMeV]; ester I:1-I:C, II:1-II:C; linker I:N-II:N via Actinocin(1to9))
Not Active: IC50 [1] | IC50 [2] | Ki [2] | IC50 (Endothelin-1 receptor) | IC50 [3] | Ki [3] | IC50 [4] | IC50 [5] | IC50 (Adenosine receptor A2a)

C=C(C)C1(O)OC(=O)C=C1OC (configuration not stated) [PENICILLIC ACID]
Not Active: IC50 [1] | IC50 [2] | Ki [2] | IC50 (Endothelin-1 receptor) | IC50 [3] | Ki [3] | IC50 [4] | IC50 [5] | IC50 (Adenosine receptor A2a)

CN(Cc1ccc(C(C)(C)C)cc1)Cc1cccc2ccccc12 [BUTENAFINE]
Not Active: IC50 [1] | IC50 [2] | Ki [2] | IC50 (Endothelin-1 receptor) | IC50 [3] | Ki [3] | IC50 [4] | IC50 [5] | IC50 (Adenosine receptor A2a)

Cc1ccc(N(CC2=NCCN2)c2cccc(O)c2)cc1 [PHENTOLAMINE]
Not Active: IC50 [2] | Ki [2] | IC50 (Endothelin-1 receptor) | IC50 [3] | Ki [3] | IC50 [4] | IC50 [5] | IC50 (Adenosine receptor A2a)

CN(C)CCCN1c2ccccc2Sc2ccc(Cl)cc21 [CHLORPROMAZINE]
1840 nM: Ki ([5]; read-out: Ki)
4040 nM: IC50 ([5]; read-out: IC50)
Not Active: IC50 [2] | Ki [2] | IC50 (Endothelin-1 receptor) | IC50 [3] | Ki [3] | IC50 [4] | IC50 (Adenosine receptor A2a)

Clc1cccc(Cl)c1NC1=NCCN1 [CLONIDINE]
Not Active: IC50 [2] | Ki [2] | IC50 (Endothelin-1 receptor) | IC50 [3] | Ki [3] | IC50 [4] | IC50 [5] | IC50 (Adenosine receptor A2a)
